Literature values, collected in US20050112093A1, “Combination therapy for HCV infection” (priority 2003, published 2005).

Columns and labels:
[1] = majority of patients, over the course of treatment
HCV [2] = system: HCV
HCV [3] = system: HCV; remark: listed apart in the source

| Molecule | mean decrease in hemoglobin [1] [g/dL] | serum HCV RNA levels (HCV [2]; ribavirin treatment alone) | liver enzyme levels (HCV [2]; ribavirin used alone, during treatment, return to baseline when treatment is discontinued) | patients achieving a sustained virological response (SVR) (HCV [3]; chronic HCV infection, following six months of therapy) [%] | SVR (HCV [3]; treatment naïve patients, IFN-α alone, 6 months, the latter (upper) value representing 48 weeks of treatment) |
| --- | --- | --- | --- | --- | --- |
| NC(=O)c1ncn([C@@H]2O[C@H](CO)[C@@H](O)[C@H]2O)n1 [ribavirin, 1-beta-D-ribofuranosyl-1H-1,2,4-triazole-3-carboxamide] | 2 to 3 | only minimally and transiently decreases serum HCV RNA levels | decreases liver enzyme levels in most patients during treatment |  |  |
| IFN-α |  |  |  | 20 | 6-17% |
